Measurements reported in US20090023687A1, “Method for Controlling Phytopathogenic Organisms” (SYNGENTA CROP PROTECTION, INC., priority 2005, published 2009).
Like-named read-outs stand apart in the source and are kept apart here.

Columns and labels:
Type in all cases: in vivo
[1] = system: Phakopsora pachyrhizi; assay: Leaf disc test with Phakopsora pachyrhizi on glyphosate sensitive soybean, leaf disks treated (Example 4)
Source text: (§1) A synergistic effect exists whenever the action of an active ingredient combination is greater than the action expected from the effect of the individual components.
(§2) The action to be expected (E) for a given active ingredient combination obeys the so-called COLBY formula and can be calculated as follows (COLBY, S. R. “Calculating synergistic and antagonistic responses of herbicide combination”. Weeds, Vol. 15, pages 20-22; 1967):
(§3) ppm=milligrams of active ingredient (=a.i.) per litre of spray mixture X=% action by active ingredient I using p ppm of active ingredient Y=% action by active ingredient II using q ppm of active ingredient.
(§4) According to Colby, the expected (additive) action of active ingredients I+II using p+q ppm of active ingredient is
(§5) If the action actually observed (O) is greater than the expected action (E), then the action of the combination is superadditive, i.e. there is a synergistic effect.
(§6) A series of leaf disc tests were conducted to show the effects of tank mixtures of glyphosate and pesticides or plant activators on Asian soybean rust. The soybean variety tested was brand Williams82 glyphosate sensitive soybean. The leaf source for the testing was the first trifoliate leaf. Six (6) repetitions for each formulation and at each rate were conducted. Treatment of the leaf disks with the recited active ingredients was conducted 4 weeks after planting. The leaves were inoculated with Phakopsora pachyrhizi (Asian soybean rust (ASR)) one (1) day after treatment. Evaluation of the leaf was conducted ten (10) days after inoculation and the mean percent infestation of the six repetitions is reported in Tables 8-11.
As glyphosate source Touchdown® HiTech or Zapp® QI was used. The fungicides were used as commercial formulations: Bion® WG50 plant activator comprising acibenzolar-S-methyl (Syngenta Corp.), Opus® SC125 fungicide comprising epoxiconazole commercially (BASF AG), Tilt® EC250 fungicide comprising propiconazole (Syngenta Corp.), Quadris® SC250 fungicide comprising azoxystrobin (Syngenta Corp.). The rates of the active ingredients used in the tests are set in Tables 8-11 as mg active ingredient (a.i.)/L.

[2] = system: Phakopsora pachyrhizi; assay: whole plant or invertebrate; conditions: in Glycine max, foliar, read-out: % activity observed
Source text: as §1, §2, §3, §4, §5
as §6, with “the ortho-substituted phenyl-amide (OPA) fungicides represented by structures F-5 and F-9” for “pesticides or plant activators”, “leaf” for “leaf disks”, “3 and 4.” for “8-11.”
The glyphosate source was Touchdown® HiTech herbicide (Syngenta Corp.), containing the potassium salt of glyphosate and no adjuvant system. The compound OPA F-5 used was a compound of formula F-5, wherein the ratio of racemic compounds of formula F-3 (syn) to racemic compounds of formula F-4 (anti) was 9:1. The compound OPA F-9 used was a compound of formula F-9, wherein the ratio of racemic compounds of formula F-7 (trans) to racemic compounds of formula F-8 (cis) was around 100:1. The fungicides used were EC100 formulations of OPA F-5 and OPA F-9 which are emulsion concentrates containing 100 ga.i./L. The rates of the active ingredients used in the tests are set in the table as mg active ingredient (a.i.)/L.

[3] = system: Puccinia recondita; assay: Greenhouse trial with Puccinia recondita on glyphosate sensitive wheat (Example 3); conditions: read-out: % activity observed
Source text: as §1, §2, §3, §4, §5
Greenhouse tests were conducted to show the effects of tank mixtures of glyphosate and the ortho-substituted phenyl-amide (OPA) fungicides represented by structures F-10, F-5 and F-9 on cereal rust Puccinia recondita. The wheat variety tested was brand Kanzler glyphosate sensitive wheat. Three (3) repetitions for each formulation and at each rate were conducted. Treatment of the plants with the recited active ingredients was conducted preventatively 16 days after planting. The leaves were inoculated with Puccinia recondita one (1) day after treatment. Evaluation of the leaf was conducted […] after inoculation and the mean percent infestation of the three repetitions is reported in Tables 5-7.
The glyphosate source was Zapp® QI herbicide containing the potassium salt of glyphosate as well as an adjuvant system. The compound OPA F-5 used was a compound of formula F-5, wherein the ratio of racemic compounds of formula F-3 (syn) to racemic compounds of formula F-4 (anti) was 9:1. The compound OPA F-9 used was a compound of formula F-9, wherein the ratio of racemic compounds of formula F-7 (trans) to racemic compounds of formula F-8 (cis) was around 100:1. The fungicides used were EC 100 formulations of OPA F-10, OPA F-5 and OPA F-9 which are emulsion concentrates containing 100 ga.i./L. The rates of the active ingredients used in the tests are set in Tables 5-7 as mg active ingredient (a.i.)/L.

[4] = system: Phakopsora pachyrhizi; assay: Application on whole plants: leaf disc test with Phakopsora pachyrhizi on glyphosate sensitive soybean (Example 5)
Source text: as §1, §2, §3, §4, §5
(§7) A series of leaf disc tests were conducted to show the effects of tank mixtures of glyphosate and pesticides or plant activators on Asian soybean rust. The soybean variety tested was brand Williams82 glyphosate sensitive soybean. The leaf source for the testing was the first trifoliate leaf. Six (6) repetitions for each formulation and at each rate were conducted. Treatment of whole plants with the recited active ingredients was conducted 4 weeks after planting. After application, leaf disks were cut and inoculated with Phakopsora pachyrhizi (Asian soybean rust (ASR)) one (1) day after treatment. Evaluation of the leaf was conducted ten (10) days after inoculation and the mean percent infestation of the six repetitions is reported in Tables 12-14.
As glyphosate source Touchdown® HiTech or Zapp® QI was used. The fungicides were used as commercial formulations: Cantus® WG50 fungicide comprising boscalid (BASF AG), Quadris® SC250 fungicide and Bion® WG50 plant activator comprising acibenzolar-S-methyl. The rates of the active ingredients used in the tests are set in Tables 12-14 as g active ingredient (a.i.)/hectare (ha). The spray volume was 200 l/ha.

[5] = system: Phakopsora pachyrhizi; assay: Application on whole plants: leaf disc test with Phakopsora pachyrhizi on glyphosate tolerant soybean (Example 6)
Source text: as §1, §2, §3, §4, §5
as §7, with “Leaf” for “A series of leaf”, “S40-R9” for “Williams82”, “tolerant” for “sensitive”, “[…]” for “of whole plants with the recited active ingredients was conducted 4 weeks after planting. After”, “15-17.” for “12-14.”
As glyphosate source Touchdown® HiTech or Zapp® QI was used. The fungicides were used as commercial formulations: Bravo® SC500 fungicide comprising chlorothalonil (Syngenta Corp.), Score® EC250 fungicide comprising difenaconazole (Syngenta Corp.) and Mancozeb 80WP fungicide comprising mancozeb. The rates of the active ingredients used in the tests are set in Tables 15-17 as g active ingredient (a.i.)/hectare (ha). The spray volume was 200 l/ha.

[6] = Epoxiconazole Opus SC125 0.2 mg a.i./L
[7] = Acibenzolar Bion WG50 6.7 mg a.i./L
[8] = Acibenzolar Bion WG50 20 mg a.i./L
[9] = Acibenzolar Bion WG50 10 g a.i./ha
[10] = Acibenzolar Bion WG50 60 g a.i./ha
[11] = Azoxystrobin Quadris SC250 0.2 mg a.i./L
[12] = Azoxystrobin Quadris SC250 0.7 mg a.i./L
[13] = Azoxystrobin Quadris SC250 50 g a.i./ha
[14] = Azoxystrobin Quadris SC250 100 g a.i./ha
[15] = Boscalid Cantus WG50 250 g a.i./ha
[16] = Boscalid Cantus WG50 500 g a.i./ha
[17] = Chlorothalonil Bravo SC500 83.3 g a.i./ha
[18] = Chlorothalonil Bravo SC500 1500 g a.i./ha
[19] = Difenoconazole Score EC250 5 g a.i./ha
[20] = Difenoconazole Score EC250 15 g a.i./ha
[21] = Propiconazole Tilt EC250 0.7 mg a.i./L

**Q.** How did the Activity observed % [1, 6] turn out when `Fc1ccc([C@]2(Cn3cncn3)O[C@H]2c2ccccc2Cl)cc1` (racemic) [Epoxiconazole, epoxiconazole] was run?
**A.** 19%

**Q.** What about the Leaf attack % [1, 6] of the same molecule?
**A.** 62%

**Q.** What does the source list for `Cn1cc(C(=O)Nc2ccccc2C2CC2C2CC2)c(C(F)F)n1` (racemic) [OPA F-9]?
**A.** inhibition at 0.2 µg/mL ([2]; OPA F-9 0.2 mg a.i./L): 0%; inhibition at 0.7 µg/mL ([2]; OPA F-9 0.7 mg a.i./L): 0%; inhibition at 2.2 µg/mL ([2]; OPA F-9 2.2 mg a.i./L): 24%; inhibition at 6.7 µg/mL ([2]; OPA F-9 6.7 mg a.i./L): 74%; inhibition at 20 µg/mL ([2]; OPA F-9 20 mg a.i./L): 100%; inhibition at 6.6 µg/mL ([3]; OPA F-9 6.6 mg a.i./L): 81.9%

**Q.** Which results are given for `CSC(=O)c1cccc2nnsc12` [Acibenzolar, acibenzolar-S-methyl]?
**A.** Activity observed % [1, 7]: 0%; Leaf attack % [1, 7]: 74%; Activity observed % [1, 8]: 10%; Leaf attack % [1, 8]: 62%; Activity observed % [4, 9]: 19%; Leaf attack % [4, 9]: 50%; Activity observed % [4, 10]: 31%; Leaf attack % [4, 10]: 43%

**Q.** Which Activity observed % [1, 11] does the source give for `CO/C=C(/C(=O)OC)c1ccccc1Oc1cc(Oc2ccccc2C#N)ncn1` [Azoxystrobin, azoxystrobin] here?
**A.** 15%

**Q.** And the Leaf attack % [1, 11]?
**A.** 68%

**Q.** And the Activity observed % [1, 12]?
**A.** 60%

**Q.** What about the Leaf attack % [1, 12] of the same molecule?
**A.** 32%

**Q.** And the Activity observed % [4, 13]?
**A.** 0%

**Q.** What about the Leaf attack % [4, 13] of the same molecule?
**A.** 62%

**Q.** What about the Activity observed % [4, 14] of the same molecule?
**A.** 29%

**Q.** What about the Leaf attack % [4, 14] of the same molecule?
**A.** 44%

**Q.** How did the Activity observed % [4, 15] turn out when `O=C(Nc1ccccc1-c1ccc(Cl)cc1)c1cccnc1Cl` [Boscalid, boscalid] was run?
**A.** 7%

**Q.** And the Leaf attack % [4, 15]?
**A.** 58%

**Q.** And the Activity observed % [4, 16]?
**A.** 19%

**Q.** And the Leaf attack % [4, 16]?
**A.** 50%

**Q.** Which Activity observed % [5, 17] does the source give for `N#Cc1c(Cl)c(Cl)c(Cl)c(C#N)c1Cl` [Chlorothalonil, chlorothalonil] here?
**A.** 0%

**Q.** And the Leaf attack % [5, 17]?
**A.** 80%

**Q.** And the Activity observed % [5, 18]?
**A.** 17%

**Q.** What about the Leaf attack % [5, 18] of the same molecule?
**A.** 50%

**Q.** `CC1COC(Cn2cncn2)(c2ccc(Oc3ccc(Cl)cc3)cc2Cl)O1` (centres unmarked) [Difenoconazole, difenaconazole] was tested. Which Activity observed % [5, 19] did it give?
**A.** 0%

**Q.** What about the Leaf attack % [5, 19] of the same molecule?
**A.** 50%

**Q.** And the Activity observed % [5, 20]?
**A.** 0%

**Q.** What about the Leaf attack % [5, 20] of the same molecule?
**A.** 50%

**Q.** `Cn1cc(C(=O)Nc2ccccc2-c2ccc(C#CC(C)(C)C)cc2)c(C(F)F)n1` [OPA F-10] was tested. Which inhibition at 2.2 µg/mL ([3]; OPA F-10 2.2 mg a.i./L) did it give?
**A.** 0%

**Q.** And the inhibition at 6.6 µg/mL ([3]; OPA F-10 6.6 mg a.i./L)?
**A.** 0%

**Q.** Which Activity observed % [1, 21] does the source give for `CCCC1COC(Cn2cncn2)(c2ccc(Cl)cc2Cl)O1` (centres unmarked) [Propiconazole, propiconazole] here?
**A.** 4%

**Q.** And the Leaf attack % [1, 21]?
**A.** 74%

**Q.** mancozeb was tested. Which Activity observed % ([5]; Mancozeb WP80 750 g a.i./ha) did it give?
**A.** 47%

**Q.** And the Leaf attack % ([5]; Mancozeb WP80 750 g a.i./ha)?
**A.** 32%

**Q.** What about the Activity observed % ([5]; Mancozeb WP80 1500 g a.i./ha) of the same molecule?
**A.** 37%

**Q.** And the Leaf attack % ([5]; Mancozeb WP80 1500 g a.i./ha)?
**A.** 38%
